Earlier results on two compounds are cited in US20230102999A1, “DEUTERATED NICLOSAMIDE” (First Wave Bio, Inc., priority 2020, published 2023).

The conditions of series [1]: at 20° C.

Structures can show the parent of a compound that is named as a salt.

`O=C(Nc1ccc([N+](=O)[O-])cc1Cl)c1cc(Cl)ccc1O` [Niclosamide, 5-chloro-N-(2-chloro-4-nitrophenyl)-2-hydroxybenzamide]: the water solubility in series [1] (water) was 5 to 8 µg/mL. For the same compound, the solubility in acetone result (acetone) was “soluble”. The “solubility in ether, ethanol and chloroform” value (ether, ethanol and chloroform) is “sparingly soluble”.

As to `O=C(Nc1ccc([N+](=O)[O-])cc1Cl)c1cc(Cl)ccc1O` [ethanolamine salt, 5-chloro-salicyl-(2-chloro-4-nitro) anilide 2-aminoethanol salt], the “dissolves in distilled water” value in series [1] (distilled water) was 180 to 280 mg/L.
